Laboratory results: patent publication US10072026B2, “Crystalline form of 3-((1R,3s,5S)-3-((7-((5-methyl-1H-pyrazol-3-yl)amino)-1,6-naphthyridin-5-yl)amino)-8-azabicyclo[3.2.1]octan-8-yl)propanenitrile” (priority 2015, dated 2018)
Like-named read-outs stand apart in the source and are kept apart here.

Tests used:
[1] = test system: IL-4 induced STAT6 phosphorylation in THP-1 human monocytic cells; assay: Cellular JAK potency assay, THP-1; conditions: for THP-1 IL4 pIC50: IL-4 induced STAT6 phosphorylation, THP-1 cells; for IC50: Homo sapiens, THP-1, read-out: THP-1 IL4 pIC50 (converted)
[2] = test system: IL-13 induced STAT6 phosphorylation in BEAS-2B human lung epithelial cells; assay: AlphaScreen cellular JAK potency assay, BEAS-2B; conditions: for BEAS2B pIC50: IL-13 induced STAT6 phosphorylation, BEAS-2B cells; for IC50: Homo sapiens, BEAS-2B, read-out: BEAS2B pIC50 (converted)
JAK1 = JAK1 (Homo sapiens (Human), UniProt P23458); assay: LanthaScreen JAK biochemical assay (JAK1); conditions: for Ki: read-out: JAK 1 (pKi) (converted)
JAK3 = JAK3 (Homo sapiens (Human), UniProt P52333); assay: LanthaScreen JAK biochemical assay (JAK3)
[3] = test system: oxazolone-induced colitis; assay: Mouse model of oxazolone-induced colitis; type: in vivo, BALB/C mice; conditions: mouse, PO, 1, 3, and/or 10 mg/kg BID
Method: Assay 7: Mouse Model of Oxazalone-Induced Colitis
Oxazolone-induced colitis is an experimental model that has a histological resemblance to human ulcerative colitis (Heller et al. Immunology, 2002, 17, 629-638). Adult BALB/C mice from Harlan were used in the assay. On day 1, animals were lightly anesthetized with isoflurane and the hairs between the shoulder were carefully removed before oxazolone (4%, 150 μL, 4:1 acetone:olive oil formulation) or vehicle solution was slowly applied for skin sensitization. Seven days after skin sensitization, the mice were fasted overnight, anesthetized with isoflurane inhalation, and a 1 mL syringe equipped with a 3.5-F catheter, filled with oxazolone solution, was inserted carefully about 4 cm into the colon of the mouse. Following insertion, 50 μL of the oxazolone solution (1%, 1:1 ethanol:water formulation) was injected very slowly (over 30 sec using an injection pump) into the colon. The catheter was removed and the mice were held vertically (head down) for 2 min to ensure that the entire oxazolone solution remained inside the colon. Drug treatment (PO, BID or TID) or vehicle was initiated a day prior to the oxazolone intrarectal (IR) challenge. Two-day post oxazolone intrarectal challenge, the Disease Activity Index (DAI) was assessed by treatment-blinded experimenters for each mouse according to the criteria score: stool consistency score (0, normal; 2, loose; 4, diarrhea), gross bleeding score (0, absence; 2, blood tinged; 4, presence), and weight loss score (0, none; 1, 1%-5%; 2, 5%-10%; 3, 10%-20%; 4, more than 20%); DAI=average of (stool consistency score+gross bleeding score+weight loss score).
Selected compounds of the invention were tested in the assay. Efficacy in the model is evidenced by a decrease in DAI score as compared with the score from vehicle treated animals.

JAK2 = JAK2 (Homo sapiens (Human), UniProt O60674); assay: LanthaScreen JAK biochemical assay (JAK2)
Tyk2 = Tyk2 (Homo sapiens (Human), UniProt P29597); assay: LanthaScreen JAK biochemical assay (Tyk2); conditions: for Ki: read-out: Tyk 2 (pKi) (converted)
[4] = read-out: JAK 2 (pKi) (converted)

Sequence of JAK1 (P23458 whole entry): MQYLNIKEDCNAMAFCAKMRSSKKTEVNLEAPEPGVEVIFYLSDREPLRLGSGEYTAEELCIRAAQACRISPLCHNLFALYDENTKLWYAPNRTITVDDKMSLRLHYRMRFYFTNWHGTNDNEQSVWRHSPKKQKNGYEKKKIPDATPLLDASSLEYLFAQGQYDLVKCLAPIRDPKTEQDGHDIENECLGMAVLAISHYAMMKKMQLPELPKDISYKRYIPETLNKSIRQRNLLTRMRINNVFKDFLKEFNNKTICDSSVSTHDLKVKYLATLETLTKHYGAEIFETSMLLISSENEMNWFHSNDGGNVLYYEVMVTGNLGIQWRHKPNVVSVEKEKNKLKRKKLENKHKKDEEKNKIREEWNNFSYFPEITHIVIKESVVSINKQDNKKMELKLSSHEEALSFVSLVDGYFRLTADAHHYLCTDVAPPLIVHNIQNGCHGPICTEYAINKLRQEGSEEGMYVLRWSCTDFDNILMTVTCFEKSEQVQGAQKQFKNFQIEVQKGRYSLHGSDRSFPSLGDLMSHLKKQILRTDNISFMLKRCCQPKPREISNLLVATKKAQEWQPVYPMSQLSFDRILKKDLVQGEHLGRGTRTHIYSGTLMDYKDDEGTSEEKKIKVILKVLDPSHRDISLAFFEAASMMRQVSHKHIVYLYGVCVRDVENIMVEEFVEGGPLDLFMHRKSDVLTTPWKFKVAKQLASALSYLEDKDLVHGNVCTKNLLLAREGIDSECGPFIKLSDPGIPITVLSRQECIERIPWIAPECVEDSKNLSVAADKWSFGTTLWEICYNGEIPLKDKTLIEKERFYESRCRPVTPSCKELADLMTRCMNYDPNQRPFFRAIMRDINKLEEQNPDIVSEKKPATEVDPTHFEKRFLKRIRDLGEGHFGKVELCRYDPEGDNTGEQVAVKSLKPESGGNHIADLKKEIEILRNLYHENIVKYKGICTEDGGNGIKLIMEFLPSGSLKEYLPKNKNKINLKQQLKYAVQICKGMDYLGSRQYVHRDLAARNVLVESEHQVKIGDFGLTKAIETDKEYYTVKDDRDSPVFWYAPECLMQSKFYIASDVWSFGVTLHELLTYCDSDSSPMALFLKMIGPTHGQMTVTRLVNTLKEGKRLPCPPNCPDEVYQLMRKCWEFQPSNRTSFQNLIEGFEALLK
Sequence of JAK2 (O60674 whole entry): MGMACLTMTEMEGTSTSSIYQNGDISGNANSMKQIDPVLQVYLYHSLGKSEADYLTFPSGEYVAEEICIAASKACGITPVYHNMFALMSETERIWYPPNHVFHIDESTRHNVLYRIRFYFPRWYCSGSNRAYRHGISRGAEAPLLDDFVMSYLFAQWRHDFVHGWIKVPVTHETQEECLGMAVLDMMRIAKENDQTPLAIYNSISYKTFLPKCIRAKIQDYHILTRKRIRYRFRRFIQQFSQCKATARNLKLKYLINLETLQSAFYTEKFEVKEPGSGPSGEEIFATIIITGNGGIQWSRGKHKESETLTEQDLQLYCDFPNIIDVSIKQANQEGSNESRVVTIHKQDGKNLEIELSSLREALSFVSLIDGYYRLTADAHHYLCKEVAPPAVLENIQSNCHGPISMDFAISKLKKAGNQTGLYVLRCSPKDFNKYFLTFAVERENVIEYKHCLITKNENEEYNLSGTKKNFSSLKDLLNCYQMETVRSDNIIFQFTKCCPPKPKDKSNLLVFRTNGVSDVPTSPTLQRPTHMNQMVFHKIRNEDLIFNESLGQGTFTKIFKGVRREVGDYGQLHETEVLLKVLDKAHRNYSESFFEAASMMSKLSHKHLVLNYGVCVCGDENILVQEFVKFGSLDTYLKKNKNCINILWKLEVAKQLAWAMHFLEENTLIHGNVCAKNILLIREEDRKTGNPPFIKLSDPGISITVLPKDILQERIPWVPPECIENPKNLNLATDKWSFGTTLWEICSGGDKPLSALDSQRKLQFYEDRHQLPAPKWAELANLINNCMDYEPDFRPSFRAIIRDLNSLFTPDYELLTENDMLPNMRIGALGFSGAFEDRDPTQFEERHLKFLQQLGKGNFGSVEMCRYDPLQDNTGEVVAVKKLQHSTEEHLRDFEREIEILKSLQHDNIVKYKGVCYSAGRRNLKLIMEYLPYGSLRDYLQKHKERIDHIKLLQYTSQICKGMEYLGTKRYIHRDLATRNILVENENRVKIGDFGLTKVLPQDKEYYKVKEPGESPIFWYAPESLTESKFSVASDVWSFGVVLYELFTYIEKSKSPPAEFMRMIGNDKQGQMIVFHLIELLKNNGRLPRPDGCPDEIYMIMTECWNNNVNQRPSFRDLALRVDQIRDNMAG
Sequence of Tyk2 (P29597 whole entry): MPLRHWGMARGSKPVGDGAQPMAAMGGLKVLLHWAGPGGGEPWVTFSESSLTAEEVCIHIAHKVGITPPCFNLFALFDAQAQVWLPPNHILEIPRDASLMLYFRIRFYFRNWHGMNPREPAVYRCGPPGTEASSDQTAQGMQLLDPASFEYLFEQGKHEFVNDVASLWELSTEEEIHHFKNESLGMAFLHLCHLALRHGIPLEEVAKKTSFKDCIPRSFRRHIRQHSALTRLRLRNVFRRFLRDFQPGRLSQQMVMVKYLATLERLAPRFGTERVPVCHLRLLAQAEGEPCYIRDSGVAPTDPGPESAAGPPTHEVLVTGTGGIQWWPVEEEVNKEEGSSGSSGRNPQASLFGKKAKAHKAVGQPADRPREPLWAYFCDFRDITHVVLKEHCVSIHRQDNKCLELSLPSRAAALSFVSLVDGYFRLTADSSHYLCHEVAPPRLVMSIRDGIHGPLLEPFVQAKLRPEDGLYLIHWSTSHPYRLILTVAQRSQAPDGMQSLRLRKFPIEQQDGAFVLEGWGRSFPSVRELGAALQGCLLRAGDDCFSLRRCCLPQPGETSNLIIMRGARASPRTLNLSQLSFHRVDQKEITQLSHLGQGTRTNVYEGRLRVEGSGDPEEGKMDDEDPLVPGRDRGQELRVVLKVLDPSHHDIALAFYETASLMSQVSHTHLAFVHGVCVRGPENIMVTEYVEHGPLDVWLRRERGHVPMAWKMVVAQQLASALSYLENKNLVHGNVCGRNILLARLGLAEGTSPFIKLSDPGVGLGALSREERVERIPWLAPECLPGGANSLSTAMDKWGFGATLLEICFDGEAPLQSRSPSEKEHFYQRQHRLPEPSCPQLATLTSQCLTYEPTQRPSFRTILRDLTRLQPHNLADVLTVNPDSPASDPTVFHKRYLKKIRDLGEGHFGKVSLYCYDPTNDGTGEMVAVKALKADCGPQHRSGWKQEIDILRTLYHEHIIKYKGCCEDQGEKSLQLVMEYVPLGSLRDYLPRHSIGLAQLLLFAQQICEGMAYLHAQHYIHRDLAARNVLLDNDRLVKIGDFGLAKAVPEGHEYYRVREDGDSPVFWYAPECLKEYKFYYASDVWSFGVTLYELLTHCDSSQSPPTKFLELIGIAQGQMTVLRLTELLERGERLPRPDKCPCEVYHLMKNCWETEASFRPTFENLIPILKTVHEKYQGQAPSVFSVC

Row | SMILES | THP-1 IL4 pIC50 [1] | BEAS2B pIC50 [2] | JAK 1 (pKi) (JAK1) | JAK 3 (pKi) (JAK3) | decrease in DAI score as compared with vehicle treated animals [3] | JAK 2 (pKi) (JAK2) | IC50 [1] [nM] | IC50 [2] [nM] | Ki (JAK1) [nM] | Ki (JAK2; [4]) [nM] | Tyk 2 (pKi) (Tyk2) | Ki (Tyk2) [nM] | Ki (JAK2) [nM]
1 | CCOCC(=O)N1[C@@H]2CCC[C@H]1C[C@H](Nc1nc(Nc3cc(C)[nH]n3)cc3ncccc13)C2 [Example 2-17] | B (B represents a pEC50 value between 6.7 and 7.5 (EC50 between 200 nM and 32 nM)) | A (A represents a pEC50 value≥7.5 (EC50≤32 nM)) | B (B represents a pKi value between 9 and 10 (Ki between 1 nM and 0.1 nM)) | C (C represents a pKi value between 7 and 9 (Ki between 100 nM and 1 nM)) | did not exhibit a statistically significant decrease | B (B represents a pKi value between 9 and 10 (Ki between 1 nM and 0.1 nM)) | – | – | – | – | – | – | –
2 | Cc1cc(Nc2cc3ncccc3c(N[C@@H]3C[C@H]4CC[C@@H](C3)N4S(=O)(=O)c3cccnc3)n2)n[nH]1 [Example 3, N^7-(5-methyl-1H-pyrazol-3-yl)-N^5-((1R,3s,5S)-8-(pyridin-3-ylsulfonyl)-8-azabicyclo[3.2.1]octan-3-yl)-1,6-naphthyridine-5,7-diamine] | – | – | – | – | statistically significant decrease | – | 31.6 to 200 | < 31.6 | 0.1 to 1 | 0.1 to 1 | – | – | –
3 | Cc1cc(Nc2cc3ncccc3c(NC3CC4CCCC(C3)N4C(=O)C(C)O)n2)n[nH]1 (centres unmarked) [Example 2-16] | B (B represents a pEC50 value between 6.7 and 7.5 (EC50 between 200 nM and 32 nM)) | B (B represents a pEC50 value between 6.7 and 7.5 (EC50 between 200 nM and 32 nM)) | B (B represents a pKi value between 9 and 10 (Ki between 1 nM and 0.1 nM)) | C (C represents a pKi value between 7 and 9 (Ki between 100 nM and 1 nM)) | did not exhibit a statistically significant decrease | B (B represents a pKi value between 9 and 10 (Ki between 1 nM and 0.1 nM)) | – | – | – | – | B (B represents a pKi value between 9 and 10 (Ki between 1 nM and 0.1 nM)) | – | –
4 | Cc1cc(Nc2cc3ncccc3c(N[C@@H]3C[C@H]4CC[C@@H](C3)N4S(=O)(=O)CC(C)C)n2)n[nH]1 [Example 4-3] | A (A represents a pEC50 value≥7.5 (EC50≤32 nM)) | A (A represents a pEC50 value≥7.5 (EC50≤32 nM)) | B (B represents a pKi value between 9 and 10 (Ki between 1 nM and 0.1 nM)) | C (C represents a pKi value between 7 and 9 (Ki between 100 nM and 1 nM)) | did not exhibit a statistically significant decrease | B (B represents a pKi value between 9 and 10 (Ki between 1 nM and 0.1 nM)) | – | – | – | – | B (B represents a pKi value between 9 and 10 (Ki between 1 nM and 0.1 nM)) | – | –
5 | Cc1cc(Nc2cc3ncccc3c(N[C@@H]3C[C@H]4CC[C@@H](C3)N4S(=O)(=O)N3CC(C#N)C3)n2)n[nH]1 [Example 13, 1-(((1R,3s,5S)-3-((7-((5-methyl-1H-pyrazol-3-yl)amino)-1,6-naphthyridin-5-yl)amino)-8-azabicyclo[3.2.1]octan-8-yl)sulfonyl)azetidine-3-carbonitrile] | – | – | – | – | did not exhibit a statistically significant decrease | – | 31.6 to 200 | 31.6 to 200 | – | – | – | 0.1 to 1 | –
6 | Cc1cc(Nc2cc3ncccc3c(N[C@@H]3C[C@H]4CC[C@@H](C3)N4S(=O)(=O)C3CC3)n2)n[nH]1 [Example 4-4] | – | – | – | – | did not exhibit a statistically significant decrease | – | < 31.6 | < 31.6 | 0.1 to 1 | – | – | – | 0.1 to 1
7 | COCCS(=O)(=O)N1[C@@H]2CCC[C@H]1C[C@H](Nc1nc(Nc3cc(C)[nH]n3)cc3ncccc13)C2 [Example 4-19] | A (A represents a pEC50 value≥7.5 (EC50≤32 nM)) | A (A represents a pEC50 value≥7.5 (EC50≤32 nM)) | – | C (C represents a pKi value between 7 and 9 (Ki between 100 nM and 1 nM)) | did not exhibit a statistically significant decrease | – | – | – | – | – | B (B represents a pKi value between 9 and 10 (Ki between 1 nM and 0.1 nM)) | – | –
8 | CCC(C)C(=O)N1C2CCC1CC(Nc1nc(Nc3cc(C)[nH]n3)cc3ncccc13)C2 (centres unmarked) [Example 2-6] | B (B represents a pEC50 value between 6.7 and 7.5 (EC50 between 200 nM and 32 nM)) | A (A represents a pEC50 value≥7.5 (EC50≤32 nM)) | B (B represents a pKi value between 9 and 10 (Ki between 1 nM and 0.1 nM)) | C (C represents a pKi value between 7 and 9 (Ki between 100 nM and 1 nM)) | did not exhibit a statistically significant decrease | B (B represents a pKi value between 9 and 10 (Ki between 1 nM and 0.1 nM)) | – | – | – | – | C (C represents a pKi value between 7 and 9 (Ki between 100 nM and 1 nM)) | – | –
9 | Cc1cc(Nc2cc3ncccc3c(N[C@@H]3C[C@H]4CCC[C@@H](C3)N4CC(=O)N(C)C)n2)n[nH]1 [Example 1-38] | B (B represents a pEC50 value between 6.7 and 7.5 (EC50 between 200 nM and 32 nM)) | – | B (B represents a pKi value between 9 and 10 (Ki between 1 nM and 0.1 nM)) | C (C represents a pKi value between 7 and 9 (Ki between 100 nM and 1 nM)) | statistically significant decrease | B (B represents a pKi value between 9 and 10 (Ki between 1 nM and 0.1 nM)) | – | – | – | – | – | – | –
10 | Cc1cc(Nc2cc3ncccc3c(N[C@@H]3C[C@H]4CCC[C@@H](C3)N4S(=O)(=O)c3ccccc3)n2)n[nH]1 [Example 9, N^7-(5-methyl-1H-pyrazol-3-yl)-N^5-((1R,3s,5S)-9-(phenylsulfonyl)-9-azabicyclo[3.3.1]nonan-3-yl)-1,6-naphthyridine-5,7-diamine] | – | – | – | – | did not exhibit a statistically significant decrease | – | < 31.6 | < 31.6 | 0.1 to 1 | 0.1 to 1 | – | 0.1 to 1 | –
11 | Cc1cc(Nc2cc3ncccc3c(N[C@@H]3C[C@H]4CCC[C@@H](C3)N4C(=O)Cc3ccccc3)n2)n[nH]1 [Example 2-24] | A (A represents a pEC50 value≥7.5 (EC50≤32 nM)) | A (A represents a pEC50 value≥7.5 (EC50≤32 nM)) | B (B represents a pKi value between 9 and 10 (Ki between 1 nM and 0.1 nM)) | – | did not exhibit a statistically significant decrease | B (B represents a pKi value between 9 and 10 (Ki between 1 nM and 0.1 nM)) | – | – | – | – | – | – | –
12 | CCS(=O)(=O)N1[C@@H]2CC[C@H]1C[C@H](Nc1nc(Nc3cc(C)[nH]n3)cc3ncccc13)C2 [Example 7, N^5-((1R,3s,5S)-8-(ethylsulfonyl)-8-azabicyclo[3.2.1]octan-3-yl)-N^7-(5-methyl-1H-pyrazol-3-yl)-1,6-naphthyridine-5,7-diamine] | – | – | – | – | did not exhibit a statistically significant decrease | – | < 31.6 | < 31.6 | – | 0.1 to 1 | – | 0.1 to 1 | –
13 | Cc1cc(Nc2cc3ncccc3c(N[C@@H]3C[C@H]4CCC[C@@H](C3)N4C(=O)C(C)(C)CO)n2)n[nH]1 [Example 2-22] | B (B represents a pEC50 value between 6.7 and 7.5 (EC50 between 200 nM and 32 nM)) | A (A represents a pEC50 value≥7.5 (EC50≤32 nM)) | B (B represents a pKi value between 9 and 10 (Ki between 1 nM and 0.1 nM)) | C (C represents a pKi value between 7 and 9 (Ki between 100 nM and 1 nM)) | did not exhibit a statistically significant decrease | B (B represents a pKi value between 9 and 10 (Ki between 1 nM and 0.1 nM)) | – | – | – | – | B (B represents a pKi value between 9 and 10 (Ki between 1 nM and 0.1 nM)) | – | –
